Values quoted from earlier work, collected in publication PMC7617459, “Comparative Evaluation and Profiling of Chemical Tools for the Nuclear Hormone Receptor Family 2” (ACS pharmacology & translational science, 2025).

What was measured:
Parameters in all cases: method as in PMID 33114319
[1] = system: fructose-1,6-bisphosphatase 1 (FBP1); settings: HepG2 cells; cited from earlier work
[2] = target: HNF4α; settings: ITC; cited from earlier work
[3] = system: HNF4α; settings: reporter gene assay; cited from earlier work

For `OC(c1ccc(F)cc1)c1ccc(F)cc1` [compound 5], the “expression of HNF4 target gene FBP1” value [1] is listed as “diminished expression”, the Kd [2] is listed as 1.7 µM and the IC50 [3] is listed as 24 µM.
